In the NIST ThermoML archive (doi:10.1016/j.jct.2014.12.020):
Numbers after ± are expanded uncertainties.

Assay: wn = mass fraction of the nth substance listed
Conditions: 100 kPa, Liquid; for mass density: Vibrating tube method; for viscosity: Concentric cylinders viscometry

CCC(=O)[O-].C[N+](C)(C)CCO [cholinium propanoate] + O
Conditions	mass density [kg/m3]	viscosity [mPa·s]
318.15 K, w2 = 0.003	1056.4 ± 1.3	–
318.15 K, w2 = 0.01	1057 ± 1.3	–
318.15 K, w2 = 0.021	1058.1 ± 1.3	–
318.15 K, w2 = 0.025	1058.3 ± 1.3	–
318.15 K, w2 = 0.046	1059.9 ± 1.3	–
318.15 K, w2 = 0.064	1061.2 ± 1.3	–
318.15 K, w2 = 0.1	1062.9 ± 1.2	–
318.15 K, w2 = 0.127	1063.6 ± 1.2	–
318.15 K, w2 = 0.208	1063.4 ± 1.2	–
318.15 K, w2 = 0.262	1060.7 ± 1.1	–
323.15 K, w2 = 0.003	1053.6 ± 1.3	455.4 ± 16
323.15 K, w2 = 0.01	1054.3 ± 1.3	360 ± 12
323.15 K, w2 = 0.021	1055.4 ± 1.3	267.4 ± 8.2
323.15 K, w2 = 0.025	1055.7 ± 1.3	241.9 ± 7.2
323.15 K, w2 = 0.046	1057.3 ± 1.3	153.1 ± 4
323.15 K, w2 = 0.064	1058.7 ± 1.3	108 ± 2.6
323.15 K, w2 = 0.1	1060.2 ± 1.2	61.3 ± 1.4
323.15 K, w2 = 0.127	1060.8 ± 1.2	44.8 ± 1
323.15 K, w2 = 0.208	1060.6 ± 1.2	20.4 ± 0.5
323.15 K, w2 = 0.262	1057.8 ± 1.1	14.7 ± 0.3
328.15 K, w2 = 0.003	1050.9 ± 1.3	336.7 ± 11
328.15 K, w2 = 0.01	1051.6 ± 1.3	270 ± 8.3
328.15 K, w2 = 0.021	1052.7 ± 1.3	203.8 ± 5.8
328.15 K, w2 = 0.025	1053 ± 1.3	185.5 ± 5.1
328.15 K, w2 = 0.046	1054.6 ± 1.3	119.9 ± 3
328.15 K, w2 = 0.064	1056 ± 1.3	86 ± 2
328.15 K, w2 = 0.1	1057.5 ± 1.2	50 ± 1.1
328.15 K, w2 = 0.127	1058 ± 1.2	36.9 ± 0.8
328.15 K, w2 = 0.208	1057.8 ± 1.2	17.2 ± 0.4
328.15 K, w2 = 0.262	1054.9 ± 1.1	12.5 ± 0.3
333.15 K, w2 = 0.003	1048.2 ± 1.3	253.8 ± 7.6
333.15 K, w2 = 0.01	1049 ± 1.3	206.2 ± 5.9
333.15 K, w2 = 0.021	1050.1 ± 1.3	158.1 ± 4.2
333.15 K, w2 = 0.025	1050.3 ± 1.3	144.6 ± 3.8
333.15 K, w2 = 0.046	1052.1 ± 1.3	95.3 ± 2.3
333.15 K, w2 = 0.064	1053.3 ± 1.3	69.4 ± 1.6
333.15 K, w2 = 0.1	1054.8 ± 1.2	41.2 ± 0.9
333.15 K, w2 = 0.127	1055.4 ± 1.2	30.7 ± 0.7
333.15 K, w2 = 0.208	1054.9 ± 1.2	14.6 ± 0.3
333.15 K, w2 = 0.262	1051.9 ± 1.1	10.6 ± 0.2
338.15 K, w2 = 0.003	1045.5 ± 1.3	194.8 ± 5.5
338.15 K, w2 = 0.01	1046.3 ± 1.3	160.1 ± 4.3
338.15 K, w2 = 0.021	1047.5 ± 1.3	124.5 ± 3.1
338.15 K, w2 = 0.025	1047.8 ± 1.3	114.4 ± 2.8
338.15 K, w2 = 0.046	1049.4 ± 1.3	76.7 ± 1.8
338.15 K, w2 = 0.064	1050.7 ± 1.3	56.7 ± 1.3
338.15 K, w2 = 0.1	1052.1 ± 1.2	34.3 ± 0.8
338.15 K, w2 = 0.127	1052.6 ± 1.2	25.8 ± 0.6
338.15 K, w2 = 0.208	1052 ± 1.2	12.5 ± 0.3
338.15 K, w2 = 0.262	1048.9 ± 1.1	9.3 ± 0.2
343.15 K, w2 = 0.003	1042.9 ± 1.3	151.9 ± 4
343.15 K, w2 = 0.01	1043.7 ± 1.3	126.2 ± 3.2
343.15 K, w2 = 0.021	1044.8 ± 1.3	99.3 ± 2.4
343.15 K, w2 = 0.025	1045.1 ± 1.3	91.8 ± 2.2
343.15 K, w2 = 0.046	1046.7 ± 1.3	62.5 ± 1.4
343.15 K, w2 = 0.064	1047.9 ± 1.3	46.8 ± 1
343.15 K, w2 = 0.1	1049.3 ± 1.2	28.8 ± 0.6
343.15 K, w2 = 0.127	1049.7 ± 1.2	21.9 ± 0.5
343.15 K, w2 = 0.208	1049.1 ± 1.2	10.8 ± 0.2
343.15 K, w2 = 0.262	1045.8 ± 1.1	8.1 ± 0.2
